According to patent publication US10634665B2 (priority 2014, dated 2020):

System: BEAS-2B epithelium
Assay: Drug toxicity test in bronchiolar device (LDH release)
Assay type: cell-based
Conditions: 0.1, 1.0 and 10 μM in BEGM medium, recirculating 10 μL/min, 48 hours, bronchiolar device of FIG. 27; FIG. 95A
Procedure: FIGS. 95A-95D show drug toxicity results obtained from using a bronchiolar device embodiment described herein; FIG. 95A is a graph of camptothecin concentration (μM) vs. cytotoxicity (% LDH release) illustrating the cytotoxicity of camptothecin as measured after having passed through the bronchiolar device; […] show images of fluorescent microbead deposition on a central lumen associated with cells.
Drug toxicity was tested using a bronchiolar device as described herein. A pro-apoptotic anti-cancer drug, camptothecin, was chosen to monitor drug toxicity in the bronchiolar device illustrated in FIG. 27. Different concentrations of camptothecin (0.1, 1.0 and 10 μM) were prepared by diluting the original stock solution (2 mg/mL in DMSO) with BEGM culturing medium. After the lumen of a hollow tube of the device was covered with BEAS-2B epithelium, medium in the medium reservoir (which was connected to a maintaining system) was replaced with individual concentrations of the camptothecin medium solution to allow the circulating flow into medium chamber of device. The tubing connected to hollow tube was closed and the recirculating flow rate was set to 10 μL/min to allow camptothecin to diffuse into the bronchiolar epithelium for 48 hours.

`CC[C@@]1(O)C(=O)OCc2c1cc1n(c2=O)Cc2cc3ccccc3nc2-1` [camptothecin] was tested, and the “cytotoxicity (% LDH release) versus camptothecin concentration” value was “drug dose dependence was observed”.
